Results reported in patent publication US20130323767A1, “Method to Identify Liver Toxicity Using Metabolite Profiles” (STRAND LIFE SCIENCES PRIVATE LIMITED, priority 2011, published 2013).

Legend:
Type in all cases: biochemical
Details in all cases: experimental data or published literature, primary rat hepatocyte cultures
Influx of fatty acids = assay: Observed % change in influx of fatty acids, drug-treated hepatocytes
Method: (§1) Liver specific cells or cell-lines are treated with known doses of drugs or toxicants. Upon treatment, the cells are harvested and cellular extracts prepared. In these extracts, the drug-induced alterations in metabolite profiles can be obtained by any technique such as biochemical assays, mass spectrometry, NMR or any other technique for obtaining metabolite profile known in the art. These are then compared with values obtained in the absence of the drug. Metabolites with significant alterations from their untreated values are identified. This generates what is referred to as altered metabolites 1.
(§2) All metabolite profiles upon drug treatment are obtained experimentally from primary rat hepatocyte cultures. The drug-induced metabolite profiles are then compared with those from untreated cells to obtain altered metabolites 1. The CMA-ES procedure described above is applied wherein, an initial population of 40 randomly generated parameter sets with fitness criteria of 10^−8 is used and the set of likely altered parameters are estimated for the following drugs. Further, a set of biochemical assays are carried out wherever possible to experimentally measure the level of parameter alteration.
(§3) For the validation of this disclosure, biochemical enzymatic assays are used. However, methods such as NMR, or mass spectrometry can also be used for metabolite data collection. […]

fof1ATPase = assay: Observed % change in concentration of fof1ATPase
Method: as §1, §2, §3

[1] = system: Glutathione reductase (mitochondrial); assay: Observed % change in glutathione reductase (mitochondrial)
Method: as §1, §2, §3

[2] = system: Glutathione peroxidase (mitochondrial); assay: Observed % change in glutathione peroxidase (mitochondrial)
Method: as §1, §2, §3

[3] = system: Carnitine palmitoyl transferase; assay: Observed % change in carnitine palmitoyl transferase
Method: as §1, §2, §3

[4] = system: Gamma glutamyl cysteine synthetase; assay: Observed % change in gamma glutamyl cysteine synthetase
Method: as §1, §2, §3

[5] = system: Glutathione reductase (cytosolic); assay: Observed % change in glutathione reductase (cytosolic)
Method: as §1, §2, §3

[6] = system: Glutathione peroxidase (cytosolic); assay: Observed % change in glutathione peroxidase (cytosolic)
Method: as §1, §2, §3

k proton leak = assay: Observed % change in k proton leak
Method: as §1, §2, §3

k Ca2+/Na+ = assay: Observed % change in k Ca2+/Na+

Concentration_of_fof1ATPase, observed % change (fof1ATPase) [%]	Glutathione reductase (mitochondrial), observed % change [1] [%]	Glutathione peroxidase (mitochondrial), observed % change [2] [%]	Carnitine palmitoyl transferase, observed % change [3] [%]	Gamma glutamyl cysteine synthetase, observed % change [4] [%]	Glutathione reductase (cytosolic), observed % change [5] [%]	Glutathione peroxidase (cytosolic), observed % change [6] [%]	SMILES	Influx of fatty acids, observed % change (Influx of fatty acids) [%]	k proton leak, observed % change (k proton leak) [%]	k Ca2+/Na+, observed % change (k Ca2+/Na+) [%]
−22.00	20.00	21.00	0.00	0.00	360.00	7.00	O=C(O)Cc1ccccc1Nc1c(Cl)cccc1Cl [Diclofenac]	−9.00	400.00	900.00
−1.00	−60.00	−44.00	−70.00	−53.00	40.00	−22.00	CCCC(CCC)C(=O)O [Valproic acid]	−36.00	400.00	900.00
